Experimental data published in patent US20030022821A1, “Bioactive peptides” (priority 1998, published 2003).
Converted amounts (≈) assume the structure as drawn. Like-named read-outs stand apart in the source and are kept apart here. Peptide text beside a SMILES is read from it. * marks the point of attachment. Acm = CC(=O)NC*

Key:
Type in all cases: cell-based
human red blood cells = assay: Hemolytic assay; details: red cells of human
Protocol: The hemolytic activities of the peptides were determined using fresh human red blood cells. 8 ml blood was taken from a healthy person. 4 ml blood was transferred to a polycarbonate tube containing heparin to a final concentration of 10 U/ml, and the remaining 4 ml blood was transferred to a glass tube containing EDTA with final concentration of 15% EDTA. The erythrocytes were isolated from heparin-treated blood by centrifugation in 1500 rpm for 10 min and washed three times with phosphate-buffered saline (PBS) to remove plasma and buffy coat. The cell pellet was resuspended in PBS to make the final volume of 4 ml. The peptide was diluted to a concentration of 2 mg/ml and 0.1 mg/ml. The peptide was further diluted to the concentrations as stated in Table 15. For each tube PBS was added first, then RBCs and peptide solutions. The hematocrit in the blood treated with EDTA was determined after 30 min with Sysmex K-1000, and the resuspended RBCs were diluted into 10% hematocrit. RBCs in PBS (1%) with and without peptides (Table 15) were incubated in a shaker at […] for 1 hour and then centrifuged at 4000 rpm for 5 min. The supernatant were carefully transferred to new polycarbonate tubes and the absorbance of the supernatant was measured at 540 nm. Baseline hemolysis was hemoglobin released in the presence of PBS, and 100% hemolysis was hemoglobin released in the presence of 0.1% Triton X-100.

[1] = system: Escherichia coli ATCC 25922
Protocol: (§1) The bacterial strains used were: Escherichia coli ATCC 25922 and Staphylococcus aureus ATCC 25923. All strains were stored at −70° C. The bacteria were grown in 2% Bacto Peptone water (Difco 1807-17-4). All tests were performed with bacteria in mid-logarithmic growth phase. Determination of the minimum inhibitory concentration (MIC) of the peptides for bacterial strains were performed in 1% Bacto Peptone water. A standard microdilution technique with an inoculum of 2×10^6 CFU/ml was used. All assays were performed in triplets. Since the peptides are positively charged and therefore could adhere to the plastic wells, we controlled the actual concentration of the peptides in the solution by HPLC. There was no difference between the concentration of the peptides before or after adding the solution to the plastic wells.

[2] = system: Staphylococcus aureus ATCC 25923
Protocol: as §1

| SMILES | MIC E. coli ([1]; ATCC 25922) [µg/mL] | MIC S. aureus ([2]; ATCC 25923) [µg/mL] | % Hemolysis 10 μg/ml (human red blood cells) [%] | % Hemolysis 100 μg/ml (human red blood cells) [%] | also measured |
| --- | --- | --- | --- | --- | --- |
| CSCC[C@@H](NC(=O)[C@@H](CCCNC(=N)N)NC(=O)[C@@H](Cc1c[nH]c2ccccc12)NC(=O)[C@@H](CCC(N)=O)NC(=O)[C@@H](Cc1c[nH]c2ccccc12)NC(=O)[C@@H](CCCNC(=N)N)NC(=O)[C@@H](CCCNC(=N)N)NC(=O)[C@@H](CSCNC(C)=O)NC(=O)[C@@H](CCCCN)NC(=O)[C@H](N)Cc1ccccc1)C(=O)N[C@H](CCCCN)C(=O)N[C@H](CCCCN)C(=O)N[C@H](CC(C)C)C(=O)NCC(=O)N[C@H](C)C(=O)O [Enantio LFB 17-31] | – | – | 3.05 | – | MIC E. coli ([1]; Table 3): 7.5 µg/mL (≈ 3.63 µM); MIC S. aureus ([2]; Table 3, unit assumed): 60 µg/mL (≈ 29 µM) |
| CSCC[C@H](NC(=O)[C@H](CCCNC(=N)N)NC(=O)[C@H](Cc1c[nH]c2ccccc12)NC(=O)[C@H](CCC(N)=O)NC(=O)[C@H](Cc1c[nH]c2ccccc12)NC(=O)[C@H](CCCNC(=N)N)NC(=O)[C@H](Cc1ccccc1)NC(=O)[C@H](CSCNC(C)=O)NC(=O)[C@H](CCCCN)NC(=O)[C@@H](N)Cc1ccccc1)C(=O)N[C@@H](CCCCN)C(=O)N[C@@H](CCCCN)C(=O)N[C@@H](CC(C)C)C(=O)NCC(=O)N[C@@H](C)C(=O)O [LFB F4] (H-FKC(Acm)FRWQWRMKKLGA-OH; N-terminus and C-terminus assumed) | – | – | 2.4 | 3.2 | MIC E. coli ATCC 25922 ([1]; ATCC 25922): 20 µg/mL; MIC E. coli ATCC 25922 ([1]; Table 1, value in brackets): 10 µM; MIC E. coli ([1]; Table 12): 20 µg/mL (≈ 9.73 µM); MIC S. aureus ATCC 25923 ([2]; ATCC 25923): 200 µg/mL; MIC S. aureus ATCC 25923 ([2]; Table 1, value in brackets): 100 µM; MIC S. aureus ([2]; Table 12): 200 µg/mL (≈ 97.3 µM) |
| CSCC[C@H](NC(=O)[C@H](CCCNC(=N)N)NC(=O)[C@H](Cc1c(S(=O)(=O)c2c(C)c(C)c3c(c2C)CCC(C)(C)O3)[nH]c2ccccc12)NC(=O)[C@H](CCC(N)=O)NC(=O)[C@H](Cc1ccc2ccccc2c1)NC(=O)[C@H](CCCNC(=N)N)NC(=O)[C@H](CCCNC(=N)N)NC(=O)[C@H](CSCNC(C)=O)NC(=O)[C@H](CCCCN)NC(=O)[C@@H](N)Cc1ccccc1)C(=O)N[C@@H](CCCCN)C(=O)N[C@@H](CCCCN)C(=O)N[C@@H](CC(C)C)C(=O)NCC(=O)N[C@@H](C)C(=O)O [LFB Nal6 PMC] | 25 (≈ 10.7 µM) | 20 (≈ 8.54 µM) | 2.8 | 17.8 | – |
| CSCC[C@H](NC(=O)[C@H](C)NC(=O)[C@H](Cc1c[nH]c2ccccc12)NC(=O)[C@H](CCC(N)=O)NC(=O)[C@H](Cc1c[nH]c2ccccc12)NC(=O)[C@H](CCCNC(=N)N)NC(=O)[C@H](CC(C)C)NC(=O)[C@H](CSCNC(C)=O)NC(=O)[C@H](CCCCN)NC(=O)[C@@H](N)CCC(=O)O)C(=O)N[C@@H](CCCNC(=N)N)C(=O)N[C@@H](CCCCN)C(=O)N[C@@H](Cc1ccc(O)cc1)C(=O)NCC(=O)NCC(=O)O [LFM A9 W8 Y13] (H-EKC(Acm)LRWQWAMRKYGG-OH; N-terminus and C-terminus assumed) | >1000 | >1000 | – | – | – |
| CSCC[C@H](NC(=O)[C@H](CCC(=O)O)NC(=O)[C@H](Cc1c[nH]c2ccccc12)NC(=O)[C@H](CCC(N)=O)NC(=O)[C@H](Cc1c[nH]c2ccccc12)NC(=O)[C@H](CCCNC(=N)N)NC(=O)[C@H](CC(C)C)NC(=O)[C@H](CSCNC(C)=O)NC(=O)[C@H](CCCCN)NC(=O)[C@@H](N)CCCNC(=N)N)C(=O)N[C@@H](CCCNC(=N)N)C(=O)N[C@@H](CCCCN)C(=O)N[C@@H](Cc1ccc(O)cc1)C(=O)NCC(=O)NCC(=O)O [LFM R1 W8 Y13] (H-RKC(Acm)LRWQWEMRKYGG-OH; N-terminus and C-terminus assumed) | 50 (≈ 24.2 µM) | 50 (≈ 24.2 µM) | – | – | – |
| CSCC[C@H](NC(=O)[C@H](CCCNC(=N)N)NC(=O)[C@H](Cc1c[nH]c2ccccc12)NC(=O)[C@H](CCC(N)=O)NC(=O)[C@H](Cc1c[nH]c2ccccc12)NC(=O)[C@H](CCCNC(=N)N)NC(=O)[C@H](CC(C)C)NC(=O)[C@H](CSCNC(C)=O)NC(=O)[C@H](CCCCN)NC(=O)[C@@H](N)CCC(=O)O)C(=O)N[C@@H](CCCNC(=N)N)C(=O)N[C@@H](CCCCN)C(=O)N[C@@H](Cc1ccc(O)cc1)C(=O)NCC(=O)NCC(=O)O [LFM R9 W8 Y13] (H-EKC(Acm)LRWQWRMRKYGG-OH; N-terminus and C-terminus assumed) | 150 (≈ 72.5 µM) | 1000 (≈ 483 µM) | – | – | – |

The next lines start with results.

| MIC E. coli ([1]; ATCC 25922) [µg/mL] | MIC S. aureus ([2]; ATCC 25923) [µg/mL] | SMILES | % Hemolysis 10 μg/ml (human red blood cells) [%] | % Hemolysis 100 μg/ml (human red blood cells) [%] | also measured |
| --- | --- | --- | --- | --- | --- |
| >200 | >200 | CSCC[C@H](NC(=O)[C@H](CCCNC(=N)N)NC(=O)[C@H](Cc1c[nH]c2ccccc12)NC(=O)[C@H](CCC(N)=O)NC(=O)[C@H](C)NC(=O)[C@H](CCCNC(=N)N)NC(=O)[C@H](CCCNC(=N)N)NC(=O)[C@H](CSCNC(C)=O)NC(=O)[C@H](CCCCN)NC(=O)[C@@H](N)Cc1ccccc1)C(=O)N[C@@H](CCCCN)C(=O)N[C@@H](CCCCN)C(=O)N[C@@H](CC(C)C)C(=O)NCC(=O)N[C@@H](C)C(=O)O [LFB A6] (H-FKC(Acm)RRAQWRMKKLGA-OH; N-terminus assumed) | 2.78 | 3.27 | – |
| 150 (≈ 77.9 µM) | >1000 | CSCC[C@H](NC(=O)[C@H](C)NC(=O)[C@H](Cc1c[nH]c2ccccc12)NC(=O)[C@H](CCC(N)=O)NC(=O)[C@H](Cc1c[nH]c2ccccc12)NC(=O)[C@H](CCCNC(=N)N)NC(=O)[C@H](CC(C)C)NC(=O)[C@H](CSCNC(C)=O)NC(=O)[C@H](CCCCN)NC(=O)[C@H](C)N)C(=O)N[C@@H](CCCNC(=N)N)C(=O)N[C@@H](CCCCN)C(=O)N[C@@H](Cc1ccc(O)cc1)C(=O)NCC(=O)NCC(=O)O [LFM A1, 9 W8 Y13] (H-AKC(Acm)LRWQWAMRKYGG-OH; N-terminus and C-terminus assumed) | – | – | – |
| 25 (≈ 11.9 µM) | 50 (≈ 23.9 µM) | CSCC[C@H](NC(=O)[C@H](CCCNC(=N)N)NC(=O)[C@H](Cc1c[nH]c2ccccc12)NC(=O)[C@H](CCC(N)=O)NC(=O)[C@H](Cc1c[nH]c2ccccc12)NC(=O)[C@H](CCCNC(=N)N)NC(=O)[C@H](CC(C)C)NC(=O)[C@H](CSCNC(C)=O)NC(=O)[C@H](CCCCN)NC(=O)[C@@H](N)CCCNC(=N)N)C(=O)N[C@@H](CCCNC(=N)N)C(=O)N[C@@H](CCCCN)C(=O)N[C@@H](Cc1ccc(O)cc1)C(=O)NCC(=O)NCC(=O)O [LFM R1, 9 W8 Y13] (H-RKC(Acm)LRWQWRMRKYGG-OH; N-terminus and C-terminus assumed) | – | – | – |
